In patent publication US4808572A, “α-Hydroxy thioethers” (Ciba-Geigy Corporation, priority 1985, dated 1989):

Columns and labels:
[1] = target: phospholipase A2 from human leucocytes; test: In vitro inhibition of phospholipase A2 obtained from human leucocytes; assay type: biochemical; settings: enzyme from human neutrophilic polymorphonuclear leucocytes, 14C-oleic acid labelled E. coli phospholipids, 37°, 1 hour, pH 7
Protocol: Human neutrophilic polymorphonuclear leucocytes are isolated from "buffy coats" by multistage fractional sedimentation and are deep-frozen. Phospholipase A2 is extracted from the cell suspension by homogenisation with the addition of ice-cold 0.36N H2 SO4 in 2N NaCl, and the supernatant obtained after centrifugation at 10,000×g is dialysed against sodium acetate buffer pH 4.5.
In order to determine the enzyme activity, enzyme (10-30 μg protein) is incubated at 37° for 1 hour in 0.1M tris/HCl buffer pH 7 with the addition of 1 mM CaCl2 and substrate consisting of phospholipids (2 μM) of Escherichia coli that have been radioactively labelled with ^14 C-oleic acid by means of biosynthesis. The reaction is stopped by the addition of Dole reagent (isopropanol/heptane/1N H2 SO4 40:10:1, v/v) and the ^14 C-oleic acid selectively released by phospholipase A2 is extracted. Substrate also extracted at the same time is completely removed by filtering the extract through a column of silica gel. The ^14 C-oleic acid in the eluate is determined by radiometry.
In order to ascertain the inhibitory action of test substances on phospholipase A2, these substances are added in the form of solutions in water, dimethyl sulphoxide (final concentration in the mixture up to 5% v/v) or ethanol (final concentration in the mixture up to 2.5% v/v) to the incubation mixture. […]

[2] = target: phospholipase C from human thrombocytes; test: In vitro inhibition of phospholipase C obtained from human thrombocytes; assay type: biochemical; settings: enzyme from human thrombocytes, phosphatidyl-[14C]-inositol, 37°, 5 minutes, pH 6
Protocol: Human thrombocytes are obtained from "buffy coats" by fractional centrifugation and then deep frozen.
To ascertain the enzyme activity, enzyme (20-100 μg protein) is incubated at 37° for 5 minutes in 0.025M tris/malate buffer pH 6 with the addition of 0.2 mM CaCl2 and 0.02 mM radioactively labelled substrate, phosphatidyl-[^14 C]-inositol. The reaction is stopped by extraction by shaking with CHCl3 /CH3 OH 2:1 (v/v). In the course of this operation unconsumed substrate is extracted into the organic phase, whilst the reaction product, ^14 C-inositol phosphate, remains in the aqueous phase and can be measured by radiometry of an aliquot.
In order to ascertain the inhibitory action of test substances on phospholipase C, these substances are added in the form of solutions in water, dimethyl sulphoxide (final concentration in the mixture up to 5%, v/v) or ethanol (final concentration in the mixture up to 2.5%, v/v) to the incubation mixture. The strength of action of the test substances is expressed by the IC50, that is to say the concentration that causes a 50% inhibition of the control activity. The IC50 is ascertained on a graph by plotting the percentage inhibition on the ordinate against the log of the concentration (μM) on the abscissa.

IC50 [1]: 1600 µM
IC50 [2]: 20 µM
Compound: CCN(CC)CCCC(C)Nc1c2ccc(Cl)cc2nc2ccc(OC)cc12 (centres unmarked) [mepacrine]
